Patent US6656941B2, “Aryl substituted tetrahydroindazoles” (Neurogen Corporation, priority 2000, dated 2003)

melting point: 120 °C
SMILES: CCCNCCOc1ccc(NC(=O)c2n[nH]c3c2C(=O)CCC3)cn1 [Example 4, 4-Oxo-4,5,6,7-tetrahydro-1H-indazole-3-carboxylic acid [6-(2-propylamino-ethoxy)-pyridin-3-yl]-amide]
